Where a name gives a salt, the structure may show the parent alone.
What was measured:
[1] = dobutamine plasma levels in anesthetized rats after intravenous bolus and intranasal saline solution; assay type: in vivo; settings: rat
Procedure: According to the present invention, it has been unexpectedly discovered that a catecholamine can be formulated for nasal administration and upon administration achieve equivalent bioavailability as compared to intravenous administration. The purpose of the following study is to examine the bioavailability of the catecholamine dobutamine when administered intranasally and intravenously.
Six male rats weighing 280 g were anesthetized with sodium pentobarbital (50 mg/kg I.P.). Three rats were dosed intravenously with dobutamine hydrochloride at 2.5 mg/kg. Blood samples were taken at 0.5, 2, 4, 6, 10, 15, 20 and 30 minutes for dobutamine plasma analysis. The three remaining rats received dobutamine at 2.5 mg/kg intranasally in a saline solution. Blood samples from these rats were taken at 1, 5, 10, 20, 30, 60 and 120 minutes.
As is known, the one time intravenous administration of dobutamine hydrochloride at 2.5 mg/kg produced a very high dobutamine blood level (greater than 1000 ng/ml) within 30 seconds after administration. The duration of dobutamine in the blood as a result of this method of administration was brief however, lasting only for a period of approximately 30 minutes. For comparison, 1.456 mg of dobutamine hydrochloride was dissolved in 0.2 ml of saline solution and 0.1 ml of this solution was administered intranasally to a 291 g rat to provide a dose of 2.5 mg/kg. […] The intranasal delivery of dobutamine produced a moderate dobutamine blood level of 100 ng/ml after 20 minutes.
The area under the curve (AUC) was calculated with computer assistance employing the trapezoidal method for each route of administration.

[2] = background statement; cited from earlier work
[3] = test system: catechol-O-methyltransferase; settings: background statement; cited from earlier work

SMILES: CC(CCc1ccc(O)cc1)NCCc1ccc(O)c(O)c1 (centres unmarked) [dobutamine hydrochloride]
- concentration at 20 min ([1]; blood, intranasal saline solution 2.5 mg/kg, after 20 minutes, read-out: dobutamine blood level): 100 ng/mL
- concentration at 0.5 min ([1]; blood, intravenous bolus 2.5 mg/kg, within 30 seconds after administration, average of three, read-out: dobutamine blood level): > 1000 ng/mL
- AUC at 0.5 h ([1]; plasma, IV bolus 2.5 mg/kg, trapezoidal method, sampled 0.5-30 minutes, read-out: Area Under the Curve (AUC) (converted)): 37.1 ng·h/mL
- AUC at 2 h ([1]; plasma, intranasal saline solution 2.5 mg/kg, trapezoidal method, sampled 1-120 minutes, read-out: Area Under the Curve (AUC) (converted)): 188 ng·h/mL
- persistence of effective blood level ([1]; intranasal saline solution 2.5 mg/kg, after two hours): effective blood level remained after two hours
- duration of dobutamine in the blood ([1]; intravenous bolus 2.5 mg/kg): approximately 30 minutes

SMILES: CC(CCc1ccc(O)cc1)NCCc1ccc(O)c(O)c1 (racemic) [dobutamine, (+,-) 4-[2-[[3-(p-hydroxyphenyl)-1-methylpropyl]amino]ethyl]pyrocatechol]
- half-life in the body [2]: 2 min
- biotransformation by catechol-O-methyltransferase [3]: very rapidly biotransformed
